Test results published in patent publication US7408065B2, “P2X7 receptor antagonists and their use” (AstraZeneca AB, priority 2003, dated 2008).
Where a name gives a salt, the structure may show the parent alone.

For O=C(CC1CCCCC1)Nc1c(Cl)ccc2nc(N3C[C@@H]4C[C@H]3CN4)ccc12 (as salt: acetate) [Example 13, N-[6-Chloro-2-[(1S,4S)-2,5-diazabicyclo[2.2.1]hept-2-yl]-5-quinolinyl]-cyclohexaneacetamide, Acetate], the melting point was 120 °C (dec.). Compound Cc1ccc2nc(N3CC[C@H](N)C3)ccc2c1C(=O)NCC1CCCCC1 (as salt: acetate) [Example 58, 2-[(3S)-3-Amino-1-pyrrolidinyl]-N-(cyclohexylmethyl)-6-methyl-5-quinolinecarboxamide, Acetate] has a melting point of 154 to 155 °C. With O=C(O)CN1CCN(c2ccc3c(C(=O)NCC4CCCCC4)c(Cl)ccc3n2)CC1 (as salt: acetate) [Example 73, 4-[6-Chloro-5-[[(cyclohexylmethyl)amino]carbonyl]-2-quinolinyl]-1-piperazineacetic acid, Acetate] the melting point was 185 to 190 °C. O=C(CC1CCCCC1)Nc1c(Cl)ccc2nc(CC3CCNCC3)ccc12 (as salt: hydrochloride) gave a melting point of 170 to 175 °C. For CN1CCN(c2ccc3c(NC(=O)CC4CCCCC4)c(Cl)ccc3n2)CC1 (as salt: hydrochloride), the melting point was 270 °C (dec.). Work on CCNCCCc1ccc2c(NC(=O)CC3CCCCC3)c(Cl)ccc2n1 (as salt: hydrochloride) yielded a melting point of 152 to 155 °C. O=C(CC1CCCCC1)Nc1c(Cl)ccc2nc(N3CCNCC3)ccc12 (as salt: hydrochloride) showed a melting point greater than 250 °C. CCCCNCCCc1ccc2c(NC(=O)CC3CCCCC3)c(Cl)ccc2n1 (as salt: hydrochloride) showed a melting point of 219 to 221 °C. Work on CNCCCN(C)c1ccc2c(NC(=O)C3(C4CCCCC4)CC3)c(Cl)ccc2n1 (as salt: hydrochloride) yielded a melting point of 215 to 218 °C. Work on Cc1ccc2c(C(=O)NCC3CCCCC3)c(Cl)ccc2n1 (as salt: hydrochloride) yielded a melting point of 210 to 213 °C. O=C(NCC1CCCCC1)c1c(Cl)ccc2nc(N3CCNCC3)ccc12 (as salt: hydrochloride) showed a melting point of 305 to 306 °C. In the case of CNCCCN(C)c1ccc2c(NC(=O)CC3CCC(C(F)(F)F)CC3)c(Cl)ccc2n1 (stereo not drawn) (as salt: hydrochloride), the melting point is reported as 250 °C (dec.). For CNCCCN(C)c1ccc2c(NC(=O)CC3CCCCC3)c(Cl)ccc2n1 (as salt: hydrochloride) [Example 3, N-[6-Chloro-2-[methyl[3-(methylamino)propyl]amino]-5-quinolinyl]-cyclohexaneacetamide, Dihydrochloride], the melting point was 231 to 233 °C. Work on O=C(CC1CCCCC1)Nc1c(Cl)ccc2nc(N[C@@H]3CCNC3)ccc12 (as salt: hydrochloride) [Example 14, N-[6-Chloro-2-[(3R)-3-pyrrlidinylamino]-5-quinolinyl]-cyclohexaneacetamide, Dihydrochloride] yielded a melting point of 193 to 198 °C. In the case of CCNCCCc1ccc2c(NC(=O)CC3CCCCC3)c(C)ccc2n1 (as salt: hydrochloride) [Example 15, N-[2-[3-(Ethylamino)propyl]-6-methyl-5-quinolinyl]-cyclohexaneacetamide, Dihydrochloride], the melting point is reported as 231 to 234 °C. Work on O=C(CC1CCCCC1)Nc1c(Cl)ccc2nc(NCCNCCO)ccc12 (as salt: hydrochloride) [Example 17, N-[6-Chloro-2-[[2-[(2-hydroxyethyl)amino]ethyl]amino]-5-quinolinyl]-cyclohexaneacetamide, Dihydrochloride] yielded a melting point of 238 to 240 °C. Work on O=C(NCC1CCCCC1)c1c(Cl)ccc2nc(N3CC[C@H](NCCO)C3)ccc12 (as salt: hydrochloride) [Example 50, 6-Chloro-N-(cyclohexylmethyl)-2-[(3S)-3-[(2-hydroxyethyl)amino]-1-pyrrolidinyl]-5-quinolinecarboxamide, Hydrochloride] yielded a melting point of 211 to 220 °C. In the case of O=C(O)CN1CCN(c2ccc3c(NC(=O)CC4CCCCC4)c(Cl)ccc3n2)CC1 (as salt: salt), the melting point is reported as 320 to 326 °C. Compound O=C(NCC1CCCCC1)c1c(Cl)ccc2nc(N3CCC(C(=O)O)CC3)ccc12 (as salt: sodium) [Example 74, 1-[6-Chloro-5-[[(cyclohexylmethyl)amino]carbonyl]-2-quinolinyl]-4-piperidinecarboxylic Acid, Sodium Salt] has a melting point of 320 to 324 °C. With O=C(CC1CCCCC1)Nc1c(Cl)ccc2nc(CCCc3nnn[nH]3)ccc12 (as salt: trifluoroacetate) the melting point was 140 to 145 °C. In the case of O=C(NCC1CCCCC1)c1c(Cl)ccc2nc(N3CCC[C@H]3C(=O)O)ccc12 (as salt: trifluoroacetate), the melting point is reported as 168 to 170 °C. For O=C(O)CC1CCN(c2ccc3c(C(=O)NCC4CCCCC4)c(Cl)ccc3n2)CC1 (as salt: trifluoroacetate), the melting point was 79 to 83 °C. O=C(CC1CCCCC1)Nc1c(Cl)ccc2nc(N3CCC[C@@H]3C(=O)O)ccc12 (as salt: trifluoroacetate) [Example 65, 1-[6-Chloro-5-[(cyclohexylacetyl)amino]-2-quinolinyl]-D-proline, Trifluoroacetate] showed a melting point of 170 to 173 °C. With O=C(CC1CCCCC1)Nc1c(Cl)ccc2nc(NC[C@@H](O)CO)ccc12 [Example 6, N-[6-Chloro-2-[[(2R)-2,3-dihydroxypropyl]amino]-5-quinolinyl]-cyclohexaneacetamide] the melting point was 155 to 159 °C. Compound O=C(O)CCCNc1ccc2c(NC(=O)CC3CCCCC3)c(Cl)ccc2n1 [Example 7, 4-[[6-Chlor-5-[(cyclohexylacetyl)amino]-2-quinolinyl]amino]-butanoic Acid] has a melting point of 248 to 250 °C. O=C(CC1CCC(C(F)(F)F)CC1)Nc1c(Cl)ccc2nc(N3CCNCC3)ccc12 (stereo not drawn) [Example 9, N-[6-Chloro-2-(1-piperazinyl)-5-quinolinyl]-4-(trifluoromethyl)-cyclohexaneacetamide] gave a melting point of 186 to 190 °C. Compound O=C(CC1CCCCC1)Nc1c(Cl)ccc2nc(N3CCCNCC3)ccc12 [Example 10, N-[6-Chlor-2-(hexahydro-1H-1,4-diazepin-1-yl)-5-quinolinyl]-cyclohexaneacetamide] has a melting point of 186 to 188 °C. Compound C[C@@H]1CN(c2ccc3c(NC(=O)CC4CCCCC4)c(Cl)ccc3n2)C[C@H](C)N1 [Example 11] has a melting point of 250 to 252 °C. Compound O=C(CC1CCCCC1)Nc1cccc2ncccc12 [Example 18, N-5-Quinolinyl-cyclohexaneacetamide] has a melting point of 183 to 184 °C. In the case of CC1(CC(=O)Nc2cccc3ncccc23)CCCCC1 [Example 19, 1-Methyl-N-5-quinolinyl-cyclohexaneacetamide], the melting point is reported as 133 to 135 °C. O=C(CCC1CCCC1)Nc1cccc2ncccc12 [Example 21, N-5-Quinolinyl-cyclopentanepropanamide] showed a melting point of 135 to 138 °C. Work on O=C(CC1CCCCC1)Nc1c(Cl)ccc2nc(CCCNCCCO)ccc12 [Example 22, N-[6-Chloro-2-[3-[(3-hydroxypropyl)amino]propyl]-5-quinolinyl]-cyclohexaneacetamide] yielded a melting point of 159 to 163 °C. NCCCc1ccc2c(NC(=O)CC3CCCCC3)c(Cl)ccc2n1 [Example 23, N-[2-(3-Aminopropyl)-6-chloro-5-quinolinyl]-cyclohexaneacetamide] gave a melting point of 121 to 130 °C. O=C(Nc1c(Cl)ccc2nc(N3CCNCC3)ccc12)C1(C2CCCCC2)CC1 [Example 27, N-[6-Chloro-2-(1-piperazinyl)-5-quinolinyl]-1-cyclohexyl-cyclopropanecarboxamide] showed a melting point of 219 °C. For O=C(CC1CCCCC1)Nc1c(Cl)ccc2nc(N3CC[C@H](O)C3)ccc12 [Example 29, N-[6-Chloro-2-[(3S)-3-hydroxy-1-pyrrolidinyl]-5-quinolinyl]-cyclohexaneacetamide], the melting point was 219 to 221 °C. N[C@@H]1CCN(c2ccc3c(NC(=O)CC4CCCCC4)c(Cl)ccc3n2)C1 [Example 30, N-[2-[(3R)-3-Amino-1-pyrrolidinyl]-6-chloro-5-quinolinyl]-cyclohexaneacetamide] gave a melting point of 201 to 206 °C. In the case of N[C@H]1CCN(c2ccc3c(NC(=O)CC4CCCCC4)c(Cl)ccc3n2)C1 [Example 31, N-[2-[(3S)-3-Amino-1-pyrrolidinyl]-6-chloro-5-quinolinyl]-cyclohexaneacetamide], the melting point is reported as 219 to 226 °C. In the case of NC1CCN(c2ccc3c(NC(=O)CC4CCCCC4)c(Cl)ccc3n2)CC1 [Example 32, N-[2-(4-Amino-1-piperidinyl)-6-chloro-5-quinolinyl]-cyclohexaneacetamide], the melting point is reported as 333 to 334 °C. Compound O=C(CC1CCCCC1)Nc1c(Cl)ccc2nc(N3CC[C@@H](NCCO)C3)ccc12 [Example 34, N-[6-Chloro-2-[(3R)-3-[(2-hydroxyethyl)amino]-1-pyrrolidinyl]-5-quinolinyl]-cyclohexaneacetamide] has a melting point of 197 to 199 °C. With CN[C@H]1CCN(c2ccc3c(NC(=O)CC4CCCCC4)c(Cl)ccc3n2)C1 [Example 35, N-[6-Chloro-2-[(3S)-3-(methylamino)-1-pyrrolidinyl]-5-quinolinyl]-cyclohexaneacetamide] the melting point was 164 to 165 °C. For O=C(CC1CCCCC1)Nc1c(Cl)ccc2nc(N3CC[C@H](NCCO)C3)ccc12 [Example 36, N-[6-Chloro-2-[(3S)-3-[(2-hydroxyethyl)amino]-1-pyrrolidinyl]-5-quinolinyl]-cyclohexaneacetamide], the melting point was 194 to 196 °C. Cc1ccc2nc(N3CC[C@H](N)C3)ccc2c1NC(=O)CC1CCCCC1 [Example 38, N-[2-[(3S)-3-Amino-1-pyrrolidinyl]-6-methyl-5-quinolinyl]-cyclohexaneacetamide] gave a melting point of 223 to 224 °C. For O=C(O)CNc1ccc2c(NC(=O)CC3CCCCC3)c(Cl)ccc2n1 [Example 40, N-[6-Chloro-5-[(cyclohexylacetyl)amino]-2-quinolinyl]-glycine], the melting point was 222 to 225 °C (dec.). With O=C(O)CCNc1ccc2c(NC(=O)CC3CCCCC3)c(Cl)ccc2n1 [Example 41, N-[6-Chloro-5-[(cyclohexylacetyl)amino]-2-quinolinyl]-β-alanine] the melting point was 222 to 224 °C (dec.). Work on O=C(NCC1CCCCC1)c1c(Cl)ccc2nc(N3CC(O)C3)ccc12 [Example 53, 6-Chloro-N-(cyclohexylmethyl)-2-(3-hydroxy-1-azetidinyl)-5-quinolinecarboxamide] yielded a melting point of 206 to 208 °C.
